Laboratory results as given in ChEMBL document CHEMBL3885861, “Open TG-GATES”.

Species on record: Rattus norvegicus
Assay: Open TG-GATES - Regimen: Single
Type: toxicity, organism-based, Sprague-Dawley
Design: regimen Single, gender Male, age 6 weeks
Settings: in vivo, po, route gavage; for gamma-GTP / ALP / ALT / AST / BUN / CRE / DBIL / GLC / IP / K / LDH / Na / PL / RALB / TBIL / TC / TG / TP: tissue Plasma; for APTT / Bas / Eos / Fbg / Hb / Ht / Lym / MCHC / MCV / Mono / Neu / PT / Plat / RBC / Ret / WBC: tissue Blood; for KIDNEY_L / KIDNEY_R / KIDNEY_TOTAL: tissue Kidney; for LIVER: tissue Liver
[1] = 300 mg/kg, 24 h, dose level Low

C#C[C@]1(O)CC[C@H]2[C@@H]3CCC4=Cc5oncc5C[C@]4(C)[C@H]3CC[C@@]21C [DANAZOL]
gamma-GTP (0 mg/kg, 24 h, dose level Control): 2.2 IU/L
TERMINAL_BW (300 mg/kg, 3 h, dose level Low): 219.6 g
APTT (300 mg/kg, 3 h, dose level Low): 23.3 s
Bas (300 mg/kg, 3 h, dose level Low): 0%
Eos (300 mg/kg, 3 h, dose level Low): 0.6%
Fbg (300 mg/kg, 3 h, dose level Low): 297.4 mg/dL
Hb (300 mg/kg, 3 h, dose level Low): 13.6 g/dL
Ht (300 mg/kg, 3 h, dose level Low): 40.9%
Lym (300 mg/kg, 3 h, dose level Low): 84.4%
MCHC (300 mg/kg, 3 h, dose level Low): 33.3%
MCV (300 mg/kg, 3 h, dose level Low): 62.6 fL
Mono (300 mg/kg, 3 h, dose level Low): 1.6%
Neu (300 mg/kg, 3 h, dose level Low): 12.6%
PT (300 mg/kg, 3 h, dose level Low): 15.8 s
Plat (300 mg/kg, 3 h, dose level Low): 102 x10_4/uL
RBC (300 mg/kg, 3 h, dose level Low): 654 x10_4/ul
Ret (300 mg/kg, 3 h, dose level Low): 7.2%
WBC (300 mg/kg, 3 h, dose level Low): 80 x10_2/uL
KIDNEY_L (300 mg/kg, 3 h, dose level Low): 0.9 g
KIDNEY_R (300 mg/kg, 3 h, dose level Low): 1 g
KIDNEY_TOTAL (300 mg/kg, 3 h, dose level Low): 1.9 g
LIVER (300 mg/kg, 3 h, dose level Low): 9.9 g
ALP (300 mg/kg, 3 h, dose level Low): 1338.8 IU/L
ALT (300 mg/kg, 3 h, dose level Low): 43.4 IU/L
AST (300 mg/kg, 3 h, dose level Low): 77.6 IU/L
BUN (300 mg/kg, 3 h, dose level Low): 15.4 mg/dL
CRE (300 mg/kg, 3 h, dose level Low): 0.2 mg/dL
DBIL (300 mg/kg, 3 h, dose level Low): 0 mg/dL
GLC (300 mg/kg, 3 h, dose level Low): 178.6 mg/dL
IP (300 mg/kg, 3 h, dose level Low): 8.2 mg/dL
K (300 mg/kg, 3 h, dose level Low): 4.3 meq/L
LDH (300 mg/kg, 3 h, dose level Low): 149 IU/L
Na (300 mg/kg, 3 h, dose level Low): 141.6 meq/L
PL (300 mg/kg, 3 h, dose level Low): 131.8 mg/dL
RALB (300 mg/kg, 3 h, dose level Low): 2.9 g/dL
TBIL (300 mg/kg, 3 h, dose level Low): 0.016 mg/dL
TC (300 mg/kg, 3 h, dose level Low): 68.4 mg/dL
TG (300 mg/kg, 3 h, dose level Low): 87 mg/dL
TP (300 mg/kg, 3 h, dose level Low): 5.5 g/dL
gamma-GTP (300 mg/kg, 3 h, dose level Low): 1.8 IU/L
APTT (300 mg/kg, 6 h, dose level Low): 23.9 s
Bas (300 mg/kg, 6 h, dose level Low): 0%
Eos (300 mg/kg, 6 h, dose level Low): 0.8%
Fbg (300 mg/kg, 6 h, dose level Low): 284.6 mg/dL
Hb (300 mg/kg, 6 h, dose level Low): 13 g/dL
Ht (300 mg/kg, 6 h, dose level Low): 40.1%
Lym (300 mg/kg, 6 h, dose level Low): 76.8%
MCHC (300 mg/kg, 6 h, dose level Low): 32.4%
MCV (300 mg/kg, 6 h, dose level Low): 63.6 fL
Mono (300 mg/kg, 6 h, dose level Low): 2.6%
Neu (300 mg/kg, 6 h, dose level Low): 18.8%
PT (300 mg/kg, 6 h, dose level Low): 16.7 s
Plat (300 mg/kg, 6 h, dose level Low): 120.1 x10_4/uL
RBC (300 mg/kg, 6 h, dose level Low): 631.8 x10_4/ul
Ret (300 mg/kg, 6 h, dose level Low): 7.6%
WBC (300 mg/kg, 6 h, dose level Low): 85.9 x10_2/uL
KIDNEY_L (300 mg/kg, 6 h, dose level Low): 0.9 g
KIDNEY_R (300 mg/kg, 6 h, dose level Low): 0.9 g
KIDNEY_TOTAL (300 mg/kg, 6 h, dose level Low): 1.9 g
LIVER (300 mg/kg, 6 h, dose level Low): 9 g
ALP (300 mg/kg, 6 h, dose level Low): 1332 IU/L
ALT (300 mg/kg, 6 h, dose level Low): 35.4 IU/L
AST (300 mg/kg, 6 h, dose level Low): 70.2 IU/L
BUN (300 mg/kg, 6 h, dose level Low): 10.2 mg/dL
CRE (300 mg/kg, 6 h, dose level Low): 0.2 mg/dL
DBIL (300 mg/kg, 6 h, dose level Low): 0.004 mg/dL
GLC (300 mg/kg, 6 h, dose level Low): 177.8 mg/dL
IP (300 mg/kg, 6 h, dose level Low): 9 mg/dL
K (300 mg/kg, 6 h, dose level Low): 4.3 meq/L
LDH (300 mg/kg, 6 h, dose level Low): 150.6 IU/L
Na (300 mg/kg, 6 h, dose level Low): 142.2 meq/L
PL (300 mg/kg, 6 h, dose level Low): 128.6 mg/dL
RALB (300 mg/kg, 6 h, dose level Low): 3 g/dL
TBIL (300 mg/kg, 6 h, dose level Low): 0.032 mg/dL
TC (300 mg/kg, 6 h, dose level Low): 64.2 mg/dL
TG (300 mg/kg, 6 h, dose level Low): 58 mg/dL
TP (300 mg/kg, 6 h, dose level Low): 5.3 g/dL
gamma-GTP (300 mg/kg, 6 h, dose level Low): 1.6 IU/L
TERMINAL_BW (300 mg/kg, 9 h, dose level Low): 214.6 g
APTT (300 mg/kg, 9 h, dose level Low): 22.8 s
Bas (300 mg/kg, 9 h, dose level Low): 0%
Eos (300 mg/kg, 9 h, dose level Low): 0.8%
Fbg (300 mg/kg, 9 h, dose level Low): 295.4 mg/dL
Hb (300 mg/kg, 9 h, dose level Low): 13 g/dL
Ht (300 mg/kg, 9 h, dose level Low): 39.6%
Lym (300 mg/kg, 9 h, dose level Low): 78.6%
MCHC (300 mg/kg, 9 h, dose level Low): 32.8%
MCV (300 mg/kg, 9 h, dose level Low): 61.1 fL
Mono (300 mg/kg, 9 h, dose level Low): 2.4%
Neu (300 mg/kg, 9 h, dose level Low): 17.8%
PT (300 mg/kg, 9 h, dose level Low): 16.7 s
Plat (300 mg/kg, 9 h, dose level Low): 117.4 x10_4/uL
RBC (300 mg/kg, 9 h, dose level Low): 650.2 x10_4/ul
Ret (300 mg/kg, 9 h, dose level Low): 7.4%
WBC (300 mg/kg, 9 h, dose level Low): 72.2 x10_2/uL
KIDNEY_L (300 mg/kg, 9 h, dose level Low): 1 g
KIDNEY_R (300 mg/kg, 9 h, dose level Low): 1 g
KIDNEY_TOTAL (300 mg/kg, 9 h, dose level Low): 2 g
LIVER (300 mg/kg, 9 h, dose level Low): 9.5 g
ALP (300 mg/kg, 9 h, dose level Low): 1341.8 IU/L
ALT (300 mg/kg, 9 h, dose level Low): 35.8 IU/L
AST (300 mg/kg, 9 h, dose level Low): 66.2 IU/L
BUN (300 mg/kg, 9 h, dose level Low): 10.8 mg/dL
CRE (300 mg/kg, 9 h, dose level Low): 0.1 mg/dL
DBIL (300 mg/kg, 9 h, dose level Low): 0.002 mg/dL
GLC (300 mg/kg, 9 h, dose level Low): 185.8 mg/dL
IP (300 mg/kg, 9 h, dose level Low): 9.8 mg/dL
K (300 mg/kg, 9 h, dose level Low): 4.3 meq/L
LDH (300 mg/kg, 9 h, dose level Low): 132 IU/L
Na (300 mg/kg, 9 h, dose level Low): 142.4 meq/L
PL (300 mg/kg, 9 h, dose level Low): 109.4 mg/dL
RALB (300 mg/kg, 9 h, dose level Low): 2.9 g/dL
TBIL (300 mg/kg, 9 h, dose level Low): 0.024 mg/dL
TC (300 mg/kg, 9 h, dose level Low): 54.2 mg/dL
TG (300 mg/kg, 9 h, dose level Low): 57.2 mg/dL
TP (300 mg/kg, 9 h, dose level Low): 5.3 g/dL
gamma-GTP (300 mg/kg, 9 h, dose level Low): 1.8 IU/L
TERMINAL_BW [1]: 226.8 g
APTT [1]: 23.3 s
Bas [1]: 0%
Eos [1]: 0.6%
Fbg [1]: 307.6 mg/dL
Hb [1]: 13.2 g/dL
Ht [1]: 40.1%
Lym [1]: 81.8%
MCHC [1]: 32.9%
MCV [1]: 62.6 fL
Mono [1]: 2.2%
Neu [1]: 14.6%
PT [1]: 17 s
Plat [1]: 116.4 x10_4/uL
RBC [1]: 639.6 x10_4/ul
Ret [1]: 7.3%
WBC [1]: 87.1 x10_2/uL
KIDNEY_L [1]: 1 g
KIDNEY_R [1]: 1.1 g
KIDNEY_TOTAL [1]: 2.1 g
LIVER [1]: 11.5 g
ALP [1]: 1893.6 IU/L
ALT [1]: 37.4 IU/L
AST [1]: 66.4 IU/L
BUN [1]: 15.8 mg/dL
CRE [1]: 0.2 mg/dL
DBIL [1]: 0 mg/dL
GLC [1]: 187.6 mg/dL
IP [1]: 7.2 mg/dL
K [1]: 4.3 meq/L
LDH [1]: 167 IU/L
Na [1]: 141.2 meq/L
PL [1]: 130 mg/dL
RALB [1]: 3.1 g/dL
TBIL [1]: 0.002 mg/dL
TC [1]: 48.2 mg/dL
TG [1]: 223.8 mg/dL
TP [1]: 5.6 g/dL
gamma-GTP [1]: 1.4 IU/L
